Experimental findings from article PMC10787763, “Two-substrate enzyme engineering using small libraries that combine the substrate preferences from two different variant lineages” (Scientific Reports, 2024) are described below.

The test concerns the target T1, E. coli transketolase (TK), 6M variant scaffold (Escherichia coli, UniProt P27302, H100L/H192P/A282P/I365L/D469T/G506A/R520Q, form not given).
T1 construct: gene tktA; full-length, C-terminal His6 tag, expressed in E. coli from lab plasmid (pQR791 / pQR729), Ni-NTA purified; holo-TK with ThDP and Mg2+; non-natural residue by amber suppression in TK-5C
As to the kind of experiment: initial-rate kinetics by RP-HPLC, Michaelis-Menten fit. Type of test: biochemical. The conditions noted are these: TK-5C; residue 385 is non-natural p-cyano-L-phenylalanine; acceptor substrate varied, 50 mM pyruvate as donor, 2.4 mM ThDP, 9 mM MgCl2, 50 mM Tris-HCl pH 7.0, 21 °C; error is SEM. An excerpt:
initial-rate kinetics by RP-HPLC, Michaelis-Menten fit on E. coli transketolase (TK), 6M variant scaffold

Molecules are shown by their SMILES.

T1 sequence (P27302 whole entry H100L/H192P/A282P/I365L/D469T/G506A/R520Q, form open): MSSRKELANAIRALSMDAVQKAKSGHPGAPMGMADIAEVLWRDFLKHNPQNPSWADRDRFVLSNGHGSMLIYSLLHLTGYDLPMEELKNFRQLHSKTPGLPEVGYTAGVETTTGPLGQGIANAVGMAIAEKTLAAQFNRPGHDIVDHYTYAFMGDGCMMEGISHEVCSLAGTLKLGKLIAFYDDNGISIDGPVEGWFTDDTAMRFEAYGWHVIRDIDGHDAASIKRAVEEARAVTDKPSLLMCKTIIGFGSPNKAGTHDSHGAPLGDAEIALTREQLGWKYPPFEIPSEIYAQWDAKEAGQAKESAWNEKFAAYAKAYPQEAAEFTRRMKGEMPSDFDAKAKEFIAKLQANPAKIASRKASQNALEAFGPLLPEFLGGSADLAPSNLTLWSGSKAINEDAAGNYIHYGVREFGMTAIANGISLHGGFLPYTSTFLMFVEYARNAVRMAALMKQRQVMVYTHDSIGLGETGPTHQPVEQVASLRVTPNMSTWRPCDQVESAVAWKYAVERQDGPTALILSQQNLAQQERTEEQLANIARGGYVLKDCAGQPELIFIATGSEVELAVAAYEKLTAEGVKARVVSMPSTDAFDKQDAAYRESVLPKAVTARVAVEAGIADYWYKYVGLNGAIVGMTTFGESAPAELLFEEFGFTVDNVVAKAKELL

Consider `O=Cc1cccc(C(=O)O)c1` [3-FBA, 3-formylbenzoic acid], for which the Km (as a rule, the concentration of substrate that gives half-maximal velocity) came out at 95 mM.
